According to patent US10711000B2 (Fronthera U.S. Pharmaceuticals LLC, priority 2018, dated 2020):
pIC50: −log10 of the molar value. Like-named read-outs stand apart in the source and are kept apart here.

Biological target: T1, Autotaxin (Homo sapiens, UniProt Q13822)
T1 construct: from tissue; host or cells: pooled human plasma
Assay: LPA formation in pooled human plasma (ex vivo autotaxin inhibition)
Assay type: biochemical
Conditions: 2 hours incubation
How it was run: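 Ex vivo: LPA 18:2 and 20:4 levels in compound-treated versus untreated pooled human plasma after 2 h incubation, measured by butanol extraction and negative-mode MRM LC/MS/MS against calibration standards. IC50 from non-linear fit of inhibition versus concentration.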

[1] = LPA 18:2 by LC/MS/MS, read-out: LPA formation (18:2) (IC50)
[2] = LPA 20:4 by LC/MS/MS, read-out: LPA formation (20:4) (IC50)

SMILES | pIC50 [1] | pIC50 [2]
Cc1cc(N2CC3(CN(C(=O)[C@H]4CCOC4)C3)C2)cc2c(N(C)c3nc(-c4ccc(F)cc4)c(C#N)s3)c(C3CC3)nn12 [Example 78, (S)-2-((2-cyclopropyl-7-methyl-5-(6-(tetrahydrofuran-3-carbonyl)-2,6-diazaspiro[3.3]heptan-2-yl)pyrazolo[1,5-a]pyridin-3-yl)(methyl)amino)-4-(4-fluorophenyl)thiazole-5-carbonitrile] | ≥ 7.00 | ≥ 7.00
Cc1cc(N2CCN(CC(N)=O)CC2)cc2c(N(C)c3nc(-c4ccc(F)cc4)c(C#N)s3)c(C3CC3)nn12 [Example 79] | 6.00 to 6.30 | 6.00 to 6.30
Cc1cc(N2CCN(CC(=O)O)CC2)cc2c(N(C)c3nc(-c4ccc(F)cc4)c(C#N)s3)c(C3CC3)nn12 [Example 80, 2-(4-(3-((5-cyano-4-(4-fluorophenyl)thiazol-2-yl)(methyl)amino)-2-cyclopropyl-7-methylpyrazolo[1,5-a]pyridin-5-yl)piperazin-1-yl)acetic acid] | < 6.00 | < 6.00
Cc1cc(N2CCN(C[C@@H](O)CO)CC2)cc2c(N(C)c3nc(-c4ccc(F)cc4)c(C#N)s3)c(C3CC3)nn12 [Example 82, (R)-2-((2-cyclopropyl-5-(4-(2,3-dihydroxypropyl)piperazin-1-yl)-7-methylpyrazolo[1,5-a]pyridin-3-yl)(methyl)amino)-4-(4-fluorophenyl)thiazole-5-carbonitrile] | 6.30 to 7.00 | 6.30 to 7.00
Cc1cc(N2CCN(C[C@H](O)CO)CC2)cc2c(N(C)c3nc(-c4ccc(F)cc4)c(C#N)s3)c(C3CC3)nn12 [Example 83, (S)-2-((2-cyclopropyl-5-(4-(2,3-dihydroxypropyl)piperazin-1-yl)-7-methylpyrazolo[1,5-a]pyridin-3-yl)(methyl)amino)-4-(4-fluorophenyl)thiazole-5-carbonitrile] | 6.00 to 6.30 | 6.00 to 6.30
Cc1cc(N2CC3(CN(C(=O)C4CN(C)C4)C3)C2)cc2c(N(C)c3nc(-c4ccc(F)cc4)c(C#N)s3)c(C3CC3)nn12 [Example 84, 2-((2-cyclopropyl-7-methyl-5-(6-(1-methylazetidine-3-carbonyl)-2,6-diazaspiro[3.3]heptan-2-yl)pyrazolo[1,5-a]pyridin-3-yl)(methyl)amino)-4-(4-fluorophenyl)thiazole-5-carbonitrile] | ≥ 7.00 | ≥ 7.00
Cc1cc(N2CC3(CN(C(=O)C4CCN(C)C4)C3)C2)cc2c(N(C)c3nc(-c4ccc(F)cc4)c(C#N)s3)c(C3CC3)nn12 (stereo not shown) [Example 85, 2-((2-cyclopropyl-7-methyl-5-(6-(1-methylpyrrolidine-3-carbonyl)-2,6-diazaspiro[3.3]heptan-2-yl)pyrazolo[1,5-a]pyridin-3-yl)(methyl)amino)-4-(4-fluorophenyl)thiazole-5-carbonitrile] | 6.30 to 7.00 | 6.30 to 7.00
Cc1cc(N2CCC3(CN(C(=O)[C@H]4CCOC4)C3)C2)cc2c(N(C)c3nc(-c4ccc(F)cc4)c(C#N)s3)c(C3CC3)nn12 [Example 86, (S)-2-((2-cyclopropyl-7-methyl-5-(2-(tetrahydrofuran-3-carbonyl)-2,6-diazaspiro[3.4]octan-6-yl)pyrazolo[1,5-a]pyridin-3-yl)(methyl)amino)-4-(4-fluorophenyl)thiazole-5-carbonitrile] | ≥ 7.00 | ≥ 7.00
Cc1cc(N2CC(O)C2)cc2c(N(C)c3nc(-c4ccc(F)cc4)c(C#N)s3)c(C3CC3)nn12 [Example 87, 2-[[2-cyclopropyl-5-(3-hydroxyazetidin-1-yl)-7-methyl-pyrazolo[1,5-a]pyridin-3-yl]-methyl-amino]-4-(4-fluorophenyl)thiazole-5-carbonitrile] | < 6.00 | < 6.00
Cc1cc(N2CC(C#N)C2)cc2c(N(C)c3nc(-c4ccc(F)cc4)c(C#N)s3)c(C3CC3)nn12 [Example 88, 2-[[5-(3-cyanoazetidin-1-yl)-2-cyclopropyl-7-methyl-pyrazolo[1,5-a]pyridin-3-yl]-methyl-amino]-4-(4-fluorophenyl)thiazole-5-carbonitrile] | < 6.00 | < 6.00
Cc1cc(N2CC3(CN(C(=O)C4(O)CCOCC4)C3)C2)cc2c(N(C)c3nc(-c4ccc(F)cc4)c(C#N)s3)c(C3CC3)nn12 [Example 90, 2-((2-cyclopropyl-5-(6-(4-hydroxytetrahydro-2H-pyran-4-carbonyl)-2,6-diazaspiro[3.3]heptan-2-yl)-7-methylpyrazolo[1,5-a]pyridin-3-yl)(methyl)amino)-4-(4-fluorophenyl)thiazole-5-carbonitrile] | ≥ 7.00 | ≥ 7.00
Cc1cc(N2CC3(CN(C(=O)C45CC(C4)C5)C3)C2)cc2c(N(C)c3nc(-c4ccc(F)cc4)c(C#N)s3)c(C3CC3)nn12 [Example 91, 2-((5-(6-(bicyclo[1.1.1]pentane-1-carbonyl)-2,6-diazaspiro[3.3]heptan-2-yl)-2-cyclopropyl-7-methylpyrazolo[1,5-a]pyridin-3-yl)(methyl)amino)-4-(4-fluorophenyl)thiazole-5-carbonitrile] | 6.30 to 7.00 | 6.30 to 7.00
Cc1cc(N2CCN(C3COCC3O)CC2)cc2c(N(C)c3nc(-c4ccc(F)cc4)c(C#N)s3)c(C3CC3)nn12 (stereo not shown) [Example 92] | 6.30 to 7.00 | 6.30 to 7.00

Results, then the molecule that gave them:

pIC50 [1] | pIC50 [2] | SMILES
6.30 to 7.00 | 6.30 to 7.00 | Cc1cc(N2CCC(N3CC(O)C3)CC2)cc2c(N(C)c3nc(-c4ccc(F)cc4)c(C#N)s3)c(C3CC3)nn12 [Example 93, 2-((2-cyclopropyl-5-(4-(3-hydroxyazetidin-1-yl)piperidin-1-yl)-7-methylpyrazolo[1,5-a]pyridin-3-yl)(methyl)amino)-4-(4-fluorophenyl)thiazole-5-carbonitrile]
6.30 to 7.00 | 6.00 to 6.30 | Cc1cc(N2CCN(C3COC3)CC2)cc2c(N(C)c3nc(-c4ccc(F)cc4)c(C#N)s3)c(C3CC3)nn12 [Example 94, 2-((2-cyclopropyl-7-methyl-5-(4-(oxetan-3-yl)piperazin-1-yl)pyrazolo[1,5-a]pyridin-3-yl)(methyl)amino)-4-(4-fluorophenyl)thiazole-5-carbonitrile]
< 6.00 | < 6.00 | CCc1nn2c(C)cc(N3CCN(CC(=O)N4CC(O)C4)CC3)nc2c1N(C)c1nc(-c2ccc(F)cc2)c(C#N)s1 [Example 95, 2-((2-ethyl-5-(4-(2-(3-hydroxyazetidin-1-yl)-2-oxoethyl)piperazin-1-yl)-7-methylpyrazolo[1,5-a]pyrimidin-3-yl)(methyl)amino)-4-(4-fluorophenyl)thiazole-5-carbonitrile]
≥ 7.00 | ≥ 7.00 | CCc1nn2cc(C)c(N3CCN(CC(=O)N4CC(O)C4)CC3)cc2c1N(C)c1nc(-c2ccc(F)cc2)c(C#N)s1 [Example 96, 2-((2-ethyl-5-(4-(2-(3-hydroxyazetidin-1-yl)-2-oxoethyl)piperazin-1-yl)-6-methylpyrazolo[1,5-a]pyridin-3-yl)(methyl)amino)-4-(4-fluorophenyl)thiazole-5-carbonitrile]
6.30 to 7.00 | 6.30 to 7.00 | CCc1nn2cc(C)c(N3CC4(CN(C(=O)C(C)(C)O)C4)C3)cc2c1N(C)c1nc(-c2ccc(F)cc2)c(C#N)s1 [Example 98, 2-((2-ethyl-5-(6-(2-hydroxy-2-methylpropanoyl)-2,6-diazaspiro[3.3]heptan-2-yl)-6-methylpyrazolo[1,5-a]pyridin-3-yl)(methyl)amino)-4-(4-fluorophenyl)thiazole-5-carbonitrile]
≥ 7.00 | ≥ 7.00 | CCc1nn2cc(C)c(N3CC4(CN(C(=O)C(O)CO)C4)C3)cc2c1N(C)c1nc(-c2ccc(F)cc2)c(C#N)s1 (stereo not shown) [Example 99, 2-((5-(6-(2,3-dihydroxypropanoyl)-2,6-diazaspiro[3.3]heptan-2-yl)-2-ethyl-6-methylpyrazolo[1,5-a]pyridin-3-yl)(methyl)amino)-4-(4-fluorophenyl)thiazole-5-carbonitrile]
≥ 7.00 | ≥ 7.00 | Cc1cn2nc(C3CC3)c(N(C)c3nc(-c4ccc(F)cc4)c(C#N)s3)c2cc1N1CCN(CC(=O)N2CC(O)C2)CC1 [Example 100, 2-((2-cyclopropyl-5-(4-(2-(3-hydroxyazetidin-1-yl)-2-oxoethyl)piperazin-1-yl)-6-methylpyrazolo[1,5-a]pyridin-3-yl)(methyl)amino)-4-(4-fluorophenyl)thiazole-5-carbonitrile]
≥ 7.00 | ≥ 7.00 | CCc1nn2cc(F)c(N3CC4(CN(C(=O)N5CCN(C)CC5)C4)C3)cc2c1N(C)c1nc(-c2ccc(F)cc2)c(C#N)s1 [Example 105, 2-((2-ethyl-6-fluoro-5-(6-(4-methylpiperazine-1-carbonyl)-2,6-diazaspiro[3.3]heptan-2-yl)pyrazolo[1,5-a]pyridin-3-yl)(methyl)amino)-4-(4-fluorophenyl)thiazole-5-carbonitrile]
≥ 7.00 | ≥ 7.00 | CCc1nn2cc(F)c(N3CC4(CN(C(=O)N5CC(O)C5)C4)C3)cc2c1N(C)c1nc(-c2ccc(F)cc2)c(C#N)s1 [Example 107, 2-((2-ethyl-6-fluoro-5-(6-(3-hydroxyazetidine-1-carbonyl)-2,6-diazaspiro[3.3]heptan-2-yl)pyrazolo[1,5-a]pyridin-3-yl)(methyl)amino)-4-(4-fluorophenyl)thiazole-5-carbonitrile]
≥ 7.00 | ≥ 7.00 | CCc1nn2cc(F)c(N3CC4(CN(C(=O)N5CCOCC5)C4)C3)cc2c1N(C)c1nc(-c2ccc(F)cc2)c(C#N)s1 [Example 108, 2-((2-ethyl-6-fluoro-5-(6-(morpholine-4-carbonyl)-2,6-diazaspiro[3.3]heptan-2-yl)pyrazolo[1,5-a]pyridin-3-yl)(methyl)amino)-4-(4-fluorophenyl)thiazole-5-carbonitrile]
